# Experimental data published in US20100105722A1, “Substituted 4,5,6,7-tetrahydrothienopyridines as KCNQ2/3 Modulators” (GRUENENTHAL GmbH, priority 2008, published 2010).
# Like-named read-outs stand apart in the source and are kept apart here.
# Biological target: T1, hKCNQ2/3 (Homo sapiens, UniProt O43525+O43526)
# T1 construct: expressed in transfected cells; host or cells: CHO-K1
# Experiment: Fluorescence assay using a voltage sensitive dye (fluorimetry)
# Type: cell-based
# Conditions: for Fluorimetry % Efficacy @ 10 μM (reti-gabine = 100%) / Emax at 10 µM: relative to retigabine = 100%
# Method: Fluorescence Assay using a Voltage Sensitive Dye
# […] CHO-K1 cells expressing KCNQ2/3 channels are cultivated adherently at 37° C., 5% CO2 and 95% humidity in cell culture bottles (e.g. 80 cm^2 TC flasks, Nunc) with DMEM-high glucose (Sigma Aldrich, D7777) including 10% FCS (PAN Biotech, e.g. 3302-P270521) or alternatively MEM Alpha Medium (1×, liquid, Invitrogen, #22571), 10% fetal calf serum (FCS) (Invitrogen, #10270-106, heat-inactivated) and the necessary selection antibiotics.
# Before being sown out for the measurements, the cells are washed with a 1×DPBS buffer without Ca^2+/Mg^2+ (e.g. Invitrogen, #14190-094) and detached from the bottom of the culture vessel by means of Accutase (PAA Laboratories, #L11-007) (incubation with Accutase for 15 min at 37° C.). The cell count then present is determined using a CASY™ cell counter (TCC model, Schärfe System) in order subsequently to apply, depending on the density optimization for the individual cell line, 20,000-30,000 cells/well/100 μl of the described nutrient medium to 96-well measuring plates of the Corning™ CellBIND™ type (Flat Clear Bottom Black Polystyrene Microplates, #3340). Incubation is then carried out for one hour at room temperature, without gassing or adjusting the humidity, followed by incubation for 24 hours at 37° C., 5% CO2 and 95% humidity.
# The voltage-sensitive fluorescent dye from the Membrane Potential Assay Kit (Red™ Bulk format part R8123 for FLIPR, MDS Analytical Technologies™) is prepared by dissolving the contents of a vessel Membrane Potential Assay Kit Red Component A in 200 ml of extracellular buffer (ES buffer, 120 mM NaCl, 1 mM KCl, 10 mM HEPES, 2 mM CaCl2, 2 mM MgCl2, 10 mM glucose; pH 7.4). After removal of the nutrient medium, the cells are washed with 200 μl of ES buffer, then covered with a layer of 100 μl of the dye solution prepared above and incubated for 45 min at room temperature with the exclusion of light.
# The fluorescence measurements are carried out with a BMG Labtech FLUOstar™, BMG Labtech NOVOstar™ or BMG Labtech POLARstar™ instrument (525 nm excitation, 560 nm emission, Bottom Read mode). After incubation of the dye, 50 μl of the test substances in the desired concentrations, or 50 μl of ES buffer for control purposes, are introduced into separate cavities of the measuring plate and incubated for 30 min at room temperature while being shielded from light. The fluorescence intensity of the dye is then measured for 5 min and the fluorescence value F1 of each well is thus determined at a given, constant time. 15 μl of a […] KCl solution ([…]) are then added to each well. The change in fluorescence is subsequently measured until all the relevant measured values have been obtained (mainly 5-30 min). At a given time after KCl application, a fluorescence value F2 is determined, in this case at the time of the fluorescence peak.
# For calculation, the fluorescence intensity F2 is compared with the fluorescence intensity F1, and the agonistic activity of the target compound on the potassium channel is determined therefrom. F2 and F1 are calculated as follows: […]
# In order to determine whether a substance has agonistic activity, […]
# for example, can be compared with […]
# is determined by adding to the reaction batch only the buffer solution instead of the test substance, determining the value F1K of the fluorescence intensity, adding the potassium ions as described above, and measuring a value F2K of the fluorescence intensity. F2K and F1K are then calculated as follows: […]
# A substance has an agonistic activity on the potassium channel when […]
# Independently of the comparison of […]
# it is possible to conclude that a target compound has agonistic activity if an increase in […]
# is to be observed as the dosage of the target compound increases.
# Calculations of EC50 and IC50 values are carried out with the aid of ‘Prism v4.0’ software (GraphPad Software™).
# [1] = 10 μM, CHO-K1 cells expressing KCNQ2/3, Table 3
# [2] = CHO-K1 cells expressing KCNQ2/3, Table 3
# [3] = CHO-K1, 10 μM, CHO-K1 cells expressing KCNQ2/3, Table 3, read-out: Fluorimetry % Efficacy @ 10 μM (reti-gabine = 100%)
Emax at 10 µM [3],EC50 [2],SMILES,further results
–,–,O=C(NCc1cccc(C(F)(F)F)c1)C1CCCCC1C(=O)N1CCc2sccc2C1c1ccccc1 (mixture of isomers) [compound 31],Fluorimetry % Efficacy @ 10 μM (reti-gabine = 100%) [1]: −44%; IC50 [2]: 250 nM
–,–,"O=C(CCC(=O)N1CCn2cccc2C1c1cccs1)NCc1cccc(C(F)(F)F)c1 (stereo not shown) [Example No. 76 of WO 2008/046582, reference compound]","Emax at 10 µM (10 μM, comparison experiments table, read-out: Fluorimetry % Efficacy @ 10 μM (retigabine = 100%)): 113%; EC50 (comparison experiments table): 3290 nM"
102%,456 nM,Cc1cccc(C2c3ccsc3CCN2C(=O)CCC(=O)NCc2cccc(C(F)(F)F)c2)c1 (stereo not shown) [compound 4],–
61%,> 1660 nM,Cc1ccc(C2c3ccsc3CCN2C(=O)CCC(=O)NCc2cccc(C(F)(F)F)c2)cc1 (stereo not shown) [compound 5],–
133%,284 nM,O=C(CCC(=O)N1CCc2sccc2C1c1ccccc1F)NCc1cccc(C(F)(F)F)c1 (stereo not shown) [compound 6],–
132%,348 nM,O=C(CCC(=O)N1CCc2sccc2C1c1ccc(F)cc1)NCc1cccc(C(F)(F)F)c1 (stereo not shown) [compound 7],–
110%,407 nM,O=C(CCC(=O)N1CCc2ccsc2C1c1ccccc1)NCc1cccc(C(F)(F)F)c1 (stereo not shown) [compound 9],–
121%,382 nM,Cc1cc2c(s1)CCN(C(=O)CCC(=O)NCc1cccc(C(F)(F)F)c1)C2c1ccccc1 (stereo not shown) [compound 10],–
51%,375 nM,O=C(CCC(=O)N1CCc2sccc2C1c1ccccc1)NCc1ccc(C(F)(F)F)cc1 (stereo not shown) [compound 13],–
-54%,–,COc1ccccc1CNC(=O)CCC(=O)N1CCc2sccc2C1c1ccccc1 (stereo not shown) [compound 14],–
-46%,–,COc1cccc(CNC(=O)CCC(=O)N2CCc3sccc3C2c2ccccc2)c1 (stereo not shown) [compound 15],–
21%,–,COc1ccc(CNC(=O)CCC(=O)N2CCc3sccc3C2c2ccccc2)cc1 (stereo not shown) [compound 16],–
11%,2180 nM,O=C(CCC(=O)N1CCc2sccc2C1c1ccccc1)NCc1cccc(F)c1 (stereo not shown) [compound 18],–
-45%,–,Cc1cccc(CNC(=O)CCC(=O)N2CCc3sccc3C2c2ccccc2)c1 (stereo not shown) [compound 19],–
54%,722 nM,Cc1csc2c1C(c1ccccc1)N(C(=O)CCC(=O)NCc1cccc(C(F)(F)F)c1)CC2 (stereo not shown) [compound 20],–
148%,324 nM,O=C(CCC(=O)N1CCc2sccc2C1C1CCCCC1)NCc1cccc(C(F)(F)F)c1 (stereo not shown) [compound 21],–
139%,1220 nM,CC(C)C1c2ccsc2CCN1C(=O)CCC(=O)NCc1cccc(C(F)(F)F)c1 (stereo not shown) [compound 22],–
146%,947 nM,CCCCC1c2ccsc2CCN1C(=O)CCC(=O)NCc1cccc(C(F)(F)F)c1 (stereo not shown) [compound 23],–
12%,–,O=C(CCC(=O)N1CCc2sccc2C1c1ccccc1)NCCc1ccccc1 (stereo not shown) [compound 25],–
-20%,–,Cc1ccccc1CNC(=O)CCC(=O)N1CCc2sccc2C1c1ccccc1 (stereo not shown) [compound 26],–
119%,> 404 nM,O=C(NCc1cccc(C(F)(F)F)c1)C(CC(=O)N1CCc2sccc2C1c1ccccc1)c1ccccc1 (stereo not shown) [compound 27],–
106%,540 nM,C[C@H](CC(=O)N1CCc2sccc2C1c1ccccc1)C(=O)NCc1cccc(C(F)(F)F)c1 (stereo partly shown) [compound 28],–
-45%,–,O=C(CC(C(=O)N1CCc2sccc2C1c1ccccc1)c1ccccc1)NCc1cccc(C(F)(F)F)c1 (stereo not shown) [compound 29],IC50 [2]: 133 nM
-101%,–,O=C(CC(C(=O)N1CCc2sccc2C1)c1ccccc1)NCc1cccc(C(F)(F)F)c1 (stereo not shown) [compound 30],IC50 [2]: 212 nM
–,414 nM,O=C(NCc1cccc(C(F)(F)F)c1)C1CCCCC1C(=O)N1CCc2sccc2C1c1ccccc1 (stereo not shown) [compound 32],Fluorimetry % Efficacy @ 10 μM (reti-gabine = 100%) [1]: 110%
179%,628 nM,C[C@H](CC(=O)NCc1cccc(C(F)(F)F)c1)C(=O)N1CCc2sccc2C1c1ccccc1 (stereo partly shown) [compound 34],–

Emax at 10 µM [3],EC50 [2],SMILES,further results
–,572 nM,O=C(CCC(=O)N1CCc2sccc2C1c1ccccc1)NCc1cccc(C(F)(F)F)c1 (stereo not shown) [compound 35],–
–,707 nM,O=C(CCC(=O)N1CCc2sccc2C1c1ccccc1)NCc1cccc(C(F)(F)F)c1 (stereo not shown) [compound 36],–
–,156 nM,O=C(CCC(=O)N1CCc2sccc2C1c1ccccc1)NCc1cccc(C(F)(F)F)c1F (stereo not shown) [compound 40],–
–,261 nM,O=C(CCC(=O)N1CCc2sccc2C1c1ccccc1)NCc1cc(F)cc(C(F)(F)F)c1 (stereo not shown) [compound 41],–
39%,311 nM,Cc1scc2c1CCN(C(=O)CCC(=O)NCc1cccc(C(F)(F)F)c1)C2c1ccccc1 (stereo not shown) [compound 45],–
35%,–,COc1ccc(NC(=O)CCC(=O)N2CCc3sccc3C2c2ccc(C)cc2)cc1 (stereo not shown) [compound 46],–
37%,–,Cc1ccc(C2c3ccsc3CCN2C(=O)CCC(=O)Nc2ccc3cnn(C)c3c2)cc1 (stereo not shown) [compound 47],–
-15%,–,Cc1ccc(C2c3ccsc3CCN2C(=O)CCC(=O)NCc2ccccc2)cc1 (stereo not shown) [compound 48],–
38%,–,Cc1ccc(C2c3ccsc3CCN2C(=O)CCC(=O)NCCc2ccccc2)cc1 (stereo not shown) [compound 49],–
10%,–,Cc1ccc(C2c3ccsc3CCN2C(=O)CCC(=O)NCc2ccncc2)cc1 (stereo not shown) [compound 50],–
38%,–,Cc1ccc(C2c3ccsc3CCN2C(=O)CCC(=O)NCCCc2ccccc2)cc1 (stereo not shown) [compound 51],–
15%,–,Cc1cccc(C2c3ccsc3CCN2C(=O)CCC(=O)Nc2cccc3nsnc23)c1 (stereo not shown) [compound 52],–
28%,–,Cc1cccc(C2c3ccsc3CCN2C(=O)CCC(=O)Nc2ccc3cnn(C)c3c2)c1 (stereo not shown) [compound 53],–
19%,–,Cc1cccc(C2c3ccsc3CCN2C(=O)CCC(=O)NCc2ccccn2)c1 (stereo not shown) [compound 54],–
–,690 nM,O=C(CCC(=O)N1CCc2sccc2C1c1ccccc1)NCCC1CCCCC1 (stereo not shown) [compound 245],–
–,1440 nM,O=C(CCC(=O)N1CCc2sccc2C1c1ccccc1)NCC1CCCCC1 (stereo not shown) [compound 247],–
–,347 nM,Cc1ccc(CNC(=O)CCC(=O)N2CCc3sccc3C2c2ccccc2)cc1C(F)(F)F (stereo not shown) [compound 249],–
–,517 nM,O=C(CCC(=O)N1CCc2sccc2C1c1ccccc1)NCc1ccc(F)c(C(F)(F)F)c1 (stereo not shown) [compound 250],–
–,131 nM,CCc1ccccc1C1c2ccsc2CCN1C(=O)CCC(=O)NCc1cccc(C(F)(F)F)c1 (stereo not shown) [compound 251],–
–,1010 nM,CC(C)c1ccccc1C1c2ccsc2CCN1C(=O)CCC(=O)NCc1cccc(C(F)(F)F)c1 (stereo not shown) [compound 252],–
–,211 nM,Cc1ccsc1C1c2ccsc2CCN1C(=O)CCC(=O)NCc1cccc(C(F)(F)F)c1 (stereo not shown) [compound 254],–
–,90 nM,Cc1ccccc1C1c2ccsc2CCN1C(=O)CCC(=O)NCc1ccccc1C(F)(F)F (stereo not shown) [compound 256],–
–,547 nM,Cc1ccccc1C1c2ccsc2CCN1C(=O)CCC(=O)NCc1ccc(C(F)(F)F)cc1 (stereo not shown) [compound 257],–
–,306 nM,CCCCC1c2sccc2CCN1C(=O)CCC(=O)NCc1cccc(C(F)(F)F)c1 (stereo not shown) [compound 258],–
–,84 nM,O=C(CCC(=O)N1CCc2sccc2C1CCc1ccccc1)NCc1cccc(C(F)(F)F)c1 (stereo not shown) [compound 261],–
–,166 nM,Cc1cc(F)ccc1C1c2ccsc2CCN1C(=O)CCC(=O)NCc1cccc(C(F)(F)F)c1 (stereo not shown) [compound 262],–
